Measurements as given in US5189065A, “Use of derivatives of 9,10-dihydrophenanthrene for the preparation of an anti-tumor medicament” (Roussel Uclaf, priority 1989, dated 1993).

Key:
[1] = target: T1, Tyrosinekinase of the EGF (Epidermal Growth Factor) Receptor (Homo sapiens, UniProt P00533); assay: Inhibition of tyrosinekinase of the EGF receptor (A431 cell membranes); format: biochemical; settings: membranes of A431 cells; samples containing poly(Glu, Ala, Tyr 6:3:1) substrate and EGF; 15 minutes at 30° C.; read-out: IC50, concentration of substance which inhibits the enzyme activity by 50% (converted)
T1 construct: Membranes of A431 cells (ATCC CRL 1555) are used as the source of EGF receptors; endogenous in cells; host or cells: A431 cell membranes (ATCC CRL 1555)
T1 sequence (P00533 25-1210): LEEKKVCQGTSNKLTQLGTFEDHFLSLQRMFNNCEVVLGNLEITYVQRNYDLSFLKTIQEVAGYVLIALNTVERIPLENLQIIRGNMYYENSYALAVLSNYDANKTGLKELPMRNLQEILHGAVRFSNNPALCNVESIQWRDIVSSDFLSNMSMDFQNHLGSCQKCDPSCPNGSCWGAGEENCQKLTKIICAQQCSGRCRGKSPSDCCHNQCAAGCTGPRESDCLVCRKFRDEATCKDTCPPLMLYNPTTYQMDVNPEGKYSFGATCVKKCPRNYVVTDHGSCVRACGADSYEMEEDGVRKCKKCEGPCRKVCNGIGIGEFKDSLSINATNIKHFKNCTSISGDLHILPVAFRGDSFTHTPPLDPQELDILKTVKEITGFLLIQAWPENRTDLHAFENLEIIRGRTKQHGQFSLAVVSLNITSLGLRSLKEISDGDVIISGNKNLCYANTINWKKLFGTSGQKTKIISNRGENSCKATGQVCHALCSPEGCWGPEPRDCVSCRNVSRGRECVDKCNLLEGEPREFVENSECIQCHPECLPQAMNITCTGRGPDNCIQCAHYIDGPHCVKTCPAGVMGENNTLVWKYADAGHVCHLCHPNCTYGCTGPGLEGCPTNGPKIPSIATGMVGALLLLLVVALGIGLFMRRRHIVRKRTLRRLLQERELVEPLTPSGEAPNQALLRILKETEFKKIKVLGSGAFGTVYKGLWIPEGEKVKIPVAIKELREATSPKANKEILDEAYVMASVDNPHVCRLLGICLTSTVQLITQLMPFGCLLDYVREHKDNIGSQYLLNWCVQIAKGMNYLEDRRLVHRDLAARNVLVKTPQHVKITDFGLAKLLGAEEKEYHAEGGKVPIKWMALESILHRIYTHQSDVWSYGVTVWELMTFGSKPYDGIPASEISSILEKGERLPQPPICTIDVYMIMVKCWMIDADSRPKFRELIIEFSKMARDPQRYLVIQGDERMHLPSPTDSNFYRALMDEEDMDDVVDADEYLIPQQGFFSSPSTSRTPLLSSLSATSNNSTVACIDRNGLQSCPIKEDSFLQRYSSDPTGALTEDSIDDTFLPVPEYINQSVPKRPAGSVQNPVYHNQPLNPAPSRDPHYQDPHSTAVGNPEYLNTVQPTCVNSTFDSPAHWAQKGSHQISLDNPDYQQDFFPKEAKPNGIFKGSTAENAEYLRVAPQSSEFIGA
T1 sequence (P01133 971-1023 partner limits assumed): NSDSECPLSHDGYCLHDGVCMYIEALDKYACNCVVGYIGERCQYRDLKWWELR
Experimental: 1 - Measurement of the Inhibition of Tyrosinekinase of the EGF (Epidermal Growth Factor) Receptor
Membranes of A431 cells (ATCC CRL 1555) are used as the source of EGF receptors. This cellular lineage expresses a large number of EGF receptors at its surface which have a tyrosinekinase activity.
These cells are pre-incubated with or without EGF (1000 nM) for 15 minutes and are added to a corresponding HEPES buffer (N-2-hydroxyethyl-piperazine-N'-2-ethanesulphonic acid) (with or without EGP) and containing Mg^2+ (10 mM) and Mn^2+ (2 mM) ions, 0.2% of X-100 triton, sodium orthovanadate (20 micromoles) and the inhibitor.
Samples either containing or not containing the poly substrate (Glu, Ala, Tyr 6:3:1) are prepared. The reaction is initiated by the addition of [gamma P^32 ] ATP (32 micromoles). After incubation for 15 minutes at 30° C. the samples are precipitated using 10% […], followed by filtering on a millipore membrane and the incorporated P^32 is measured with a liquid scintillation counter.
The results are expressed in IC50, that is the concentration of substance which inhibits the enzyme activity by 50%, determined by a series of dilutions starting at 51 micrograms/ml in the samples containing the substrate and EGF.

[2] = test system: catalytic sub-unit of the proteinkinase dependent on cyclic 3',5'-AMP; assay: Inhibition of the proteinkinase dependent on cyclic 3',5'-AMP; format: biochemical; settings: inhibitor 40 micrograms/ml; KEMPTID substrate; pH 6.9; 15 minutes at 30° C.
Experimental: 2 - Measurement of the Inhibition of the Proteinkinase Dependent on Cyclic 3',5'-AMP
The catalytic sub-unit of the proteinkinase dependent on cyclic 3',5'-AMP was reconstituted as indicated in SIGMA®. The enzyme activity was measured using KEMPTID® (SIGMA®) as substrate (KEMPTID - Leu-Arg-Arg-Ala-Ser-Leu-Gly).
The inhibitor is pre-incubated at pH 6.9 with the enzyme, the substrate (190 micromoles), Mg^+2 (5 mM), 0.25 mg/ml of BSA (Bovine Serum Albumin) and 3.75 mM of mercaptoethanol in 50 mM of 4-morpholinopropanesulphonic acid.
The reaction is initiated using gamma P^32 ATP (40 micromoles). After 15 minutes at 30° C. an aliquot is placed on an ion-exchange paper ([…]; WHATMAN®) plunged into phosphoric acid (75 mM), washed, dried and the incorporation of P^32 is measured using a liquid scintillation counter.
The results are expressed as a percentage of the enzyme activity inhibition at a concentration of inhibitor of 40 micrograms/ml.

| SMILES | IC50 [1] | percentage of the enzyme activity inhibition [2] |
| --- | --- | --- |
| Br.CNC1Cc2ccc(O)c(O)c2-c2ccccc21 (stereo not shown) [Example 3, 3,4-dihydroxy-9-methylamino-9,10-dihydrophenanthrene (hydrobromide)] | 0.621 µM | 18% |
| CN(C)C1Cc2ccc(O)c(O)c2-c2ccccc21 (stereo not shown) [Product A, 3,4-dihydroxy-9-dimethylamino-9,10-dihydrophenanthrene] | 2.35 µM | 19% |
